This passage reports Km results from publication PMC9129912, “Characterization of a New Multifunctional GH20 β-N-Acetylglucosaminidase From Chitinibacter sp. GC72 and Its Application in Converting Chitin Into N-Acetyl Glucosamine” (Frontiers in Microbiology, 2022).

For the assay, the system named is T1, NAGaseA.
T1 construct: whole ORF, 844 residues (2535 bp), pET-28a(+) NdeI/XhoI, His6-tag kept, E. coli BL21(DE3), Ni-NTA purified, ~92 kDa (92,379 Da with His6-tag); cloning primers encode N-terminal MNKPAG and C-terminal SRVVAV
As to the kind of experiment: pNP release at […] nm, Lineweaver-Burk. The following applies: 50 mM PBS pH 6.5, 40°C, 10 min, 50-2,500 μM substrate. In kind it is biochemical, Chitinibacter sp. GC72.

SMILES strings stand for the structures.

What is called Km is the substrate concentration at which the rate is half of its maximum. Turning to `CC(=O)N[C@H]1[C@H](Oc2ccc([N+](=O)[O-])cc2)O[C@H](CO)[C@@H](O)[C@@H]1O` [pNP-GlcNAc], the Michaelis-Menten constant (Km) was found to be 40 µM.
